In patent publication EP4603105A1, “PHARMACEUTICAL COMPOSITION CONTAINING CYCLIC COMPOUND HAVING SELECTIVE KRAS INHIBITORY EFFECT AGAINST HRAS AND NRAS” (CHUGAI SEIYAKU KABUSHIKI KAISHA, priority 2022, dated 2024):
*1 amine or outer side, *2 acyl side, *3 side chain or, on linkers, in order; H or OH if unused. Where a SMILES comes first, the peptide text is derived from it. Bridges are numbered along the chain shown (N, C = ends). [ ]: non-standard residue; d: D form. The star is where a group is joined. hPhe(3,5-F2-4-CF3) = N[C@@H](CCc1cc(F)c(C(F)(F)F)c(F)c1)C(=O)O; NPrPhe(4-CF3) = CCCN[C@@H](Cc1ccc(C(F)(F)F)cc1)C(=O)O; NMeAbu(4,4,4-F3) = CN[C@@H](CC(F)(F)F)C(=O)O; NMeGly(cPent) = CN[C@H](C(=O)O)C1CCCC1; Ac4c(3,3-F2) = NC1(C(=O)O)CC(F)(F)C1; αMeCha = C[C@](N)(CC1CCCCC1)C(=O)O; Nva(3-Et) = CCC(CC)[C@H](N)C(=O)O; X3 = CCC[C@](C)(N[*:1])C(=O)[*:2]; αMeI = CC[C@H](C)[C@](C)(N)C(=O)O; αMeF = C[C@](N)(Cc1ccccc1)C(=O)O; NMeD = CN[C@@H](CC(=O)O)C(=O)O; Ac4c(3-oxa) = NC1(C(=O)O)COC1; NMeL = CN[C@@H](CC(C)C)C(=O)O; αMeL = CC(C)C[C@](C)(N)C(=O)O; αMeS = C[C@](N)(CO)C(=O)O; Ac5c = NC1(C(=O)O)CCCC1; Sar = CNCC(=O)O; tBu = CC(C)(C)*; Allyl = C=CC*

What was measured:
[1] = tested on: human lung cancer strain NCI-H441; format: cell-based
Procedure, shortened: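 Step one: dispense the test compound in serial DMSO dilutions. Step three: add the reagent and measure […].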

[2] = molecular target: GDP-bound NRAS wild-type protein (Homo sapiens, UniProt P01111); assay: Binding to NRAS by surface plasmon resonance (SPR), KD and KD ratio to KRAS; settings: ratio of the KD value with respect to GDP-bound NRAS wild-type protein to the KD value with respect to KRAS
Procedure, shortened: (§1)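 Running buffer contained 10 µM GDP and 10 mM MgCl2 to keep RAS in the GDP state, with 4% DMSO at pH 7.4. Compounds were flowed at 100 µL/min in 75 s steps of rising concentration over captured biotin-Avi RAS at 30°C. Sensorgrams were fitted 1:1 for KD.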

[3] = molecular target: HRAS wild-type protein (Homo sapiens, UniProt P01112); assay: Binding to HRAS by surface plasmon resonance (SPR), KD and KD ratio to KRAS; settings: ratio of the KD value with respect to HRAS wild-type protein to the KD value with respect to KRAS
Procedure, shortened: as §1

Chain of HRAS wild-type protein (P01112 whole entry): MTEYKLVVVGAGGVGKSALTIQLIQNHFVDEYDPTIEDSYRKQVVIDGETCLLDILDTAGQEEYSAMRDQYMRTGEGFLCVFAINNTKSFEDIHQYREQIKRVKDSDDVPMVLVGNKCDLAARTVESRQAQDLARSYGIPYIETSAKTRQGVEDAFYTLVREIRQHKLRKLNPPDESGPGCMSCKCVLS
Chain of GDP-bound NRAS wild-type protein (P01111 whole entry): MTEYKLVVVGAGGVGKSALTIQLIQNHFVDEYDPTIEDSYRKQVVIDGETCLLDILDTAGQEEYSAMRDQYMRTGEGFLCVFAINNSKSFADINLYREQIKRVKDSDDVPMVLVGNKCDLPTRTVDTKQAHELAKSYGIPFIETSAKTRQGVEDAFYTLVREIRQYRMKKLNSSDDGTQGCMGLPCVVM

## CCCN1C(=O)CN(C)C(=O)CN(C)C(=O)[C@H]([C@@H](C)CC)NC(=O)[C@H](CC(C)C)N(C)C(=O)C[C@@H](C(=O)N(C)C)N(C)C(=O)[C@H](C2CCCC2)N(C)C(=O)[C@](C)([C@@H](C)CC)NC(=O)[C@@H]2CCCN2C(=O)[C@H](CCc2cc(F)c(C(F)(F)F)c(F)c2)NC(=O)CN(C)C(=O)[C@@H]1Cc1ccc(C(F)(F)F)cc1 [PP0736] ([NMeL]I[Sar][Sar][NPrPhe(4-CF3)][Sar][hPhe(3,5-F2-4-CF3)]P[αMeI][NMeGly(cPent)][NMeD]-NMe2; lactam N-11)
[1]
  IC50: 130 nM
[2]
  NRAS /KRAS: B (a compound having 3 or more and less than 10 is denoted as B)
[3]
  HRAS /KRAS: C (A compound having a KD ratio of 0.1 or more and less than 3 is denoted as C)

## CCCN1C(=O)CN(C)C(=O)CN(C)C(=O)[C@H]([C@@H](C)CC)NC(=O)[C@H](CC(C)C)N(C)C(=O)C[C@@H](C(=O)N(C)C)N(C)C(=O)[C@H](C2CCCC2)N(C)C(=O)[C@](C)(CCC)NC(=O)[C@@H]2CCCN2C(=O)[C@H](CCc2cc(F)c(C(F)(F)F)c(F)c2)NC(=O)CN(C)C(=O)[C@@H]1Cc1ccc(C(F)(F)F)cc1 [PP0737] ([NMeL]I[Sar][Sar][NPrPhe(4-CF3)][Sar][hPhe(3,5-F2-4-CF3)]P[X3][NMeGly(cPent)][NMeD]-NMe2; lactam N-11)
[1]
  IC50: 38.2 nM
[2]
  NRAS /KRAS: B (a compound having 3 or more and less than 10 is denoted as B)
[3]
  HRAS /KRAS: C (A compound having a KD ratio of 0.1 or more and less than 3 is denoted as C)

## CCCN1C(=O)CN(C)C(=O)CN(C)C(=O)[C@H]([C@@H](C)CC)NC(=O)[C@H](CC(C)C)N(C)C(=O)C[C@@H](C(=O)N(C)C)N(C)C(=O)[C@H](C2CCCC2)N(C)C(=O)[C@](C)(CC(C)C)NC(=O)[C@@H]2CCCN2C(=O)[C@H](CCc2cc(F)c(C(F)(F)F)c(F)c2)NC(=O)CN(C)C(=O)[C@@H]1Cc1ccc(C(F)(F)F)cc1 [PP0738] ([NMeL]I[Sar][Sar][NPrPhe(4-CF3)][Sar][hPhe(3,5-F2-4-CF3)]P[αMeL][NMeGly(cPent)][NMeD]-NMe2; lactam N-11)
[1]
  IC50: 99.2 nM
[2]
  NRAS /KRAS: B (a compound having 3 or more and less than 10 is denoted as B)
[3]
  HRAS /KRAS: B (a compound having 3 or more and less than 10 is denoted as B)

## CCCN1C(=O)CN(C)C(=O)CN(C)C(=O)[C@H]([C@@H](C)CC)NC(=O)[C@H](CC(C)C)N(C)C(=O)C[C@@H](C(=O)N(C)C)N(C)C(=O)[C@H](C2CCCC2)N(C)C(=O)[C@](C)(CC2CCCCC2)NC(=O)[C@@H]2CCCN2C(=O)[C@H](CCc2cc(F)c(C(F)(F)F)c(F)c2)NC(=O)CN(C)C(=O)[C@@H]1Cc1ccc(C(F)(F)F)cc1 [PP0739] ([NMeL]I[Sar][Sar][NPrPhe(4-CF3)][Sar][hPhe(3,5-F2-4-CF3)]P[αMeCha][NMeGly(cPent)][NMeD]-NMe2; lactam N-11)
[1]
  IC50: 297 nM
[2]
  NRAS /KRAS: B (a compound having 3 or more and less than 10 is denoted as B)
[3]
  HRAS /KRAS: C (A compound having a KD ratio of 0.1 or more and less than 3 is denoted as C)

## CCCN1C(=O)CN(C)C(=O)CN(C)C(=O)[C@H]([C@@H](C)CC)NC(=O)[C@H](CC(C)C)N(C)C(=O)C[C@@H](C(=O)N(C)C)N(C)C(=O)[C@H](C2CCCC2)N(C)C(=O)[C@](C)(Cc2ccccc2)NC(=O)[C@@H]2CCCN2C(=O)[C@H](CCc2cc(F)c(C(F)(F)F)c(F)c2)NC(=O)CN(C)C(=O)[C@@H]1Cc1ccc(C(F)(F)F)cc1 [PP0740] ([NMeL]I[Sar][Sar][NPrPhe(4-CF3)][Sar][hPhe(3,5-F2-4-CF3)]P[αMeF][NMeGly(cPent)][NMeD]-NMe2; lactam N-11)
[1]
  IC50: 51.2 nM
[2]
  NRAS /KRAS: B (a compound having 3 or more and less than 10 is denoted as B)
[3]
  HRAS /KRAS: C (A compound having a KD ratio of 0.1 or more and less than 3 is denoted as C)

## CCCN1C(=O)CN(C)C(=O)CN(C)C(=O)[C@H]([C@@H](C)CC)NC(=O)[C@H](CC(C)C)N(C)C(=O)C[C@@H](C(=O)N(C)C)N(C)C(=O)[C@H](C2CCCC2)N(C)C(=O)[C@](C)(COC)NC(=O)[C@@H]2CCCN2C(=O)[C@H](CCc2cc(F)c(C(F)(F)F)c(F)c2)NC(=O)CN(C)C(=O)[C@@H]1Cc1ccc(C(F)(F)F)cc1 [PP0741] ([NMeL]I[Sar][Sar][NPrPhe(4-CF3)][Sar][hPhe(3,5-F2-4-CF3)]P[αMeS](Me)[NMeGly(cPent)][NMeD]-NMe2; lactam N-11)
[1]
  IC50: 51.5 nM
[2]
  NRAS /KRAS: B (a compound having 3 or more and less than 10 is denoted as B)
[3]
  HRAS /KRAS: B (a compound having 3 or more and less than 10 is denoted as B)

## C=CCOC[C@]1(C)NC(=O)[C@@H]2CCCN2C(=O)[C@H](CCc2cc(F)c(C(F)(F)F)c(F)c2)NC(=O)CN(C)C(=O)[C@H](Cc2ccc(C(F)(F)F)cc2)N(CCC)C(=O)CN(C)C(=O)CN(C)C(=O)[C@H]([C@@H](C)CC)NC(=O)[C@H](CC(C)C)N(C)C(=O)C[C@@H](C(=O)N(C)C)N(C)C(=O)[C@H](C2CCCC2)N(C)C1=O [PP0742] ([NMeL]I[Sar][Sar][NPrPhe(4-CF3)][Sar][hPhe(3,5-F2-4-CF3)]P[αMeS](Allyl)[NMeGly(cPent)][NMeD]-NMe2; lactam N-11)
[1]
  IC50: 73.3 nM
[2]
  NRAS /KRAS: B (a compound having 3 or more and less than 10 is denoted as B)
[3]
  HRAS /KRAS: B (a compound having 3 or more and less than 10 is denoted as B)

## CCCN1C(=O)CN(C)C(=O)CN(C)C(=O)[C@H]([C@@H](C)CC)NC(=O)[C@H](CC(C)C)N(C)C(=O)C[C@@H](C(=O)N(C)C)N(C)C(=O)[C@H](C2CCCC2)N(C)C(=O)[C@](C)(COC(C)(C)C)NC(=O)[C@@H]2CCCN2C(=O)[C@H](CCc2cc(F)c(C(F)(F)F)c(F)c2)NC(=O)CN(C)C(=O)[C@@H]1Cc1ccc(C(F)(F)F)cc1 [PP0743] ([NMeL]I[Sar][Sar][NPrPhe(4-CF3)][Sar][hPhe(3,5-F2-4-CF3)]P[αMeS](tBu)[NMeGly(cPent)][NMeD]-NMe2; lactam N-11)
[1]
  IC50: 76.3 nM
[2]
  NRAS /KRAS: B (a compound having 3 or more and less than 10 is denoted as B)
[3]
  HRAS /KRAS: C (A compound having a KD ratio of 0.1 or more and less than 3 is denoted as C)

## CCCN1C(=O)CN(C)C(=O)CN(C)C(=O)[C@H]([C@@H](C)CC)NC(=O)[C@H](CC(C)C)N(C)C(=O)C[C@@H](C(=O)N(C)C)N(C)C(=O)[C@H](C2CCCC2)N(C)C(=O)C2(COC2)NC(=O)[C@@H]2CCCN2C(=O)[C@H](CCc2cc(F)c(C(F)(F)F)c(F)c2)NC(=O)CN(C)C(=O)[C@@H]1Cc1ccc(C(F)(F)F)cc1 [PP0744] ([NMeL]I[Sar][Sar][NPrPhe(4-CF3)][Sar][hPhe(3,5-F2-4-CF3)]P[Ac4c(3-oxa)][NMeGly(cPent)][NMeD]-NMe2; lactam N-11)
[1]
  IC50: 57 nM
[2]
  NRAS /KRAS: B (a compound having 3 or more and less than 10 is denoted as B)
[3]
  HRAS /KRAS: B (a compound having 3 or more and less than 10 is denoted as B)

## CCCN1C(=O)CN(C)C(=O)CN(C)C(=O)[C@H]([C@@H](C)CC)NC(=O)[C@H](CC(C)C)N(C)C(=O)C[C@@H](C(=O)N(C)C)N(C)C(=O)[C@H](C2CCCC2)N(C)C(=O)C2(CC(F)(F)C2)NC(=O)[C@@H]2CCCN2C(=O)[C@H](CCc2cc(F)c(C(F)(F)F)c(F)c2)NC(=O)CN(C)C(=O)[C@@H]1Cc1ccc(C(F)(F)F)cc1 [PP0745] ([NMeL]I[Sar][Sar][NPrPhe(4-CF3)][Sar][hPhe(3,5-F2-4-CF3)]P[Ac4c(3,3-F2)][NMeGly(cPent)][NMeD]-NMe2; lactam N-11)
[1]
  IC50: 3.9 nM
[2]
  NRAS /KRAS: B (a compound having 3 or more and less than 10 is denoted as B)
[3]
  HRAS /KRAS: C (A compound having a KD ratio of 0.1 or more and less than 3 is denoted as C)

## CCCN1C(=O)CN(C)C(=O)CN(C)C(=O)[C@H]([C@@H](C)CC)NC(=O)[C@H](CC(C)C)N(C)C(=O)C[C@@H](C(=O)N(C)C)N(C)C(=O)[C@H](CC(F)(F)F)N(C)C(=O)C2(CCCC2)NC(=O)[C@@H]2CCCN2C(=O)[C@H](CCc2cc(F)c(C(F)(F)F)c(F)c2)NC(=O)CN(C)C(=O)[C@@H]1Cc1ccc(C(F)(F)F)cc1 [PP0746] ([NMeL]I[Sar][Sar][NPrPhe(4-CF3)][Sar][hPhe(3,5-F2-4-CF3)]P[Ac5c][NMeAbu(4,4,4-F3)][NMeD]-NMe2; lactam N-11)
[1]
  IC50: 35.4 nM
[2]
  NRAS /KRAS: B (a compound having 3 or more and less than 10 is denoted as B)
[3]
  HRAS /KRAS: C (A compound having a KD ratio of 0.1 or more and less than 3 is denoted as C)

## CCCN1C(=O)CN(C)C(=O)CN(C)C(=O)[C@H](C(CC)CC)NC(=O)[C@H](CC(C)C)N(C)C(=O)C[C@@H](C(=O)N(C)C)N(C)C(=O)[C@H](C2CCCC2)N(C)C(=O)C2(CCCC2)NC(=O)[C@@H]2CCCN2C(=O)[C@H](CCc2cc(F)c(C(F)(F)F)c(F)c2)NC(=O)CN(C)C(=O)[C@@H]1Cc1ccc(C(F)(F)F)cc1 [PP0747] ([NMeL][Nva(3-Et)][Sar][Sar][NPrPhe(4-CF3)][Sar][hPhe(3,5-F2-4-CF3)]P[Ac5c][NMeGly(cPent)][NMeD]-NMe2; lactam N-11)
[1]
  IC50: 45.9 nM
[2]
  NRAS /KRAS: B (a compound having 3 or more and less than 10 is denoted as B)
[3]
  HRAS /KRAS: C (A compound having a KD ratio of 0.1 or more and less than 3 is denoted as C)
